Assay results from US8362031B2, “Lonidamine analogues and treatment of polycystic kidney disease” (University of Kansas, priority 2004, dated 2013).
Entries after “also recorded” stand apart in the source; their conditions may differ.

Experiments:
S. typhimurium TA100 = assay: Colormetric Ames Test Procedure; format: cell-based; conditions: at the concentration given per compound (1.39-360.1 μM), 5 days at 37° C.
Method: The following procedures were performed aseptically. First, the day before the assay, as late as possible in the day, the vial labeled “G” Nutrient Broth was dispensed into the vial labeled S. typhimurium TA100 (lyophilized). The mixture was incubated over night at 37° C. for about 16-18 hours.
In appropriate vial, about 50 mg of the test compound was weighed out. About 1 mL of DMSO was added, and the mixture was filter sterilized with 25 mm syringe filter into a sterile tube. The concentration of DMSO was noted.
In a sterile 50 mL tube, about 15 mL of sterile Davis Mingioli Salt (see Davis & Mingioli, Aromatic biosynthesis, VII. Accumulation of two derivatives of shikimic acid by bacterial mutants, J. Bacteriol. 1953. August; 66(2): 129-36) was pipetted. This salt solution (Muta Component “A”) was comprised of (1) Milli-Q, 600 mL; (2) dipotassium phosphate, anhyd., 38.5 g; (3) monopotassium phosphate, anhyd. 11.0 g; (4) ammonium sulfate, 5.5 g; (5) trisodium citrate, 1.375 g; and (6) magnesium sulfate, 0.55 g. Appropriate volume of Milli-Q water was added to bring total volume to 1 L. Each component was dissolved one at a time in the above order. The solution was filtered through a 0.22 μm filter to remove sediment at a pH of about 7.3.
To the salt solution, small amounts of DMSO diluted compound was added, not to exceed 500 μl of DMSO. For example, about 100 μl aliquots of the DMSO diluted compound was added until the highest concentration is reached with compound still in solution. […] When the highest concentration of compound was determined, an appropriate volume of sterile Davis Mingioli salts was added to bring the total volume of solution to 17.5 mL. The concentration of compound and DMSO in the test solution was then noted.
The components were then mixed in a 50 mL sterile tube labeled Reaction Mixture as follows: 21.62 mL of A+4.75 ml of B (D-glucose, 40% w/v)+2.38 mL of C (bromocresol purple, 5 mg/ml)+1.19 ml of D (D-biotin, 0.1 mg/ml)+0.060 ml (60 μl) of E (L-histidine, 0.1 mg/ml). The vial was vortexed and then set aside.
The S9 Mixture was prepared by reconstituting the S9 enzymes with 2.1 mL of sterile water. This was labeled “S9F.” In a 50 mL tube labeled S9 Mixture, the following were mixed together (all available from EBIP): 0.4 mL of S9A (MgCl2, 0.4 M and KCl, 1.65 M)+0.09 mL of S9B (glucose-6-phosphate, 1.0 M)+0.81 mL of S9C (nicotine amide di-nucleotide phosphate, 0.1 M)+9.98 mL of S9D (phosphate buffer, pH 7.4)+6.72 mL of S9E (sterile distilled water)+2 mL of S9F (Rate liver extract). The vial was vortexed and then set aside.
Sterile tubes were labeled as follows: Blank, Background I, Background II, Standard Mutagen, Compound 1 (−), Compound 1 (S9+), Compound 2 (−), Compound 2 (S9+), Compound 3 (−), Compound 3 (S9+). Next, about 2.5 mL of the reaction mix was added to each tube. Then, about 2 mL of the S9 mix was added to the Background II and the S9+ compounds. Next, to each of the compound vials, about 8 mL of the prepared compounds was added. The concentration of the compound in the final solution was noted. Then, about 100 μl of the standard mutagen was added to the Standard mutagen vial. (NaN3 for non S9 activation and 2-aminoanthracene with S9 activation). The appropriate volume of sterile water was next added for a final volume of 17.5 mL. Then, about 5 μl of bacteria was added to each tube except the Blank. Each vial was vortexed and poured into a sterile multi-channel pipette boat, and pipette 200 μl per well into the 96 well plate with a multi channel pipetter. The plates were labeled, covered, placed in zip lock bag, and then incubated for 5 days at 37° C.
On day five of the incubation, the plates were removed from the incubator and placed in a laminar flow hood. The Blank was analyzed first. If there were any wells that were yellow, the test was considered contaminated and the results invalid. […]

rats = assay: Toxicology: organs sectioned and examined after dosing; format: in vivo; conditions: two animals examined, findings per animal
Method: In at least two of the animals in each group, the pancreas, right kidney and part of the liver, heart, spleen, and lung were removed and evaluated for toxic effects.
The toxicology of animals receiving some of the compounds of the present invention IP and/or oral was examined. At the time of sacrifice samples of liver, pancreas, heart, lung, spleen and kidney were removed, visually inspected, and immersion fixed in Bouin's solution for a minimum of 48 hours. All organs were then sectioned and examined for evidence of necrosis, inflammation, hemorrhage, and possible tumors. The major veins in each tissue were also examined for distention, especially in the liver and pancreas, and any other abnormalities are compared to known histopathological states. In addition to the above, the heart was examined for evidence of fibrosis in the muscular walls, and to compare the thickness of the ventricular walls. The pancreas was examined mainly for calcium deposits, while the lung was checked for signs of any exudates or hemorrhage, especially in the alveolar spaces. Finally, the kidney was examined mainly for microscopic hemorrhages, tubular necrosis or alterations in the glomeruli in the cortex.
In this example, the effects of RC-MC-30 were compared with those of lonidamine in sexually mature rats. As discussed above, each of the rats (8 total) received a single injection and were sacrificed five days after injection and examined.

Male Long Evans rats = assay: In vivo antispermatogenic testing in Long Evans rats; conditions: for Mortality (25 mg/kg) / Response 25 mg/kg: 25 mg/kg single i.p. injection; for Response 25 mg/kg / Response 200 mg/kg: animals responding out of animals surviving, five days following injection; for Mortality (200 mg/kg) / Response 200 mg/kg: 200 mg/kg single i.p. injection
[1] = tested on: Salmonella Typhimurium TA 100; assay: Ames test for mutagenicity (plate assay, colony count); conditions: 48 hours at 37° C.; for Ames test (+)S9 0.1 mg/pl. / Ames test (+)S9 1 mg/pl. / Ames test (+)S9 10 mg/pl.: (+)S9 mix; for Ames test (−)S9 0.1 mg/pl. / Ames test (−)S9 1 mg/pl. / Ames test (−)S9 10 mg/pl.: (−)S9 mix

COC(=O)c1nn(Cc2ccc(Cl)cc2Cl)c2cccc(C)c12 [JWS-2-92, 1-(2,4-dichlorobenzyl)-4-methyl-1H-indazole-3-carboxylic acid methyl ester]
Colormetric Ames test, with S9 (S. typhimurium TA100): Pass* | Colormetric Ames test, without S9 (S. typhimurium TA100): Pass*

COC(=O)c1nn(Cc2ccc(Cl)cc2Cl)c2cc(OC(F)(F)F)ccc12 [JWS-2-100, 1-(2,4-dichlorobenzyl)-6-trifluoromethoxy-1H-indazole-3-carboxylic acid methyl ester]
Colormetric Ames test, with S9 (S. typhimurium TA100): Pass* | Colormetric Ames test, without S9 (S. typhimurium TA100): Pass*

O=C(O)c1nn(Cc2ccc(Cl)cc2Cl)c2cc(OC(F)(F)F)ccc12 [JWS-2-102, 1-(2,4-dichlorobenzyl)-6-trifluoromethoxy-1H-indazole-3-carboxylic acid]
Colormetric Ames test, with S9 (S. typhimurium TA100): Pass* | Colormetric Ames test, without S9 (S. typhimurium TA100): Pass*

NNC(=O)c1nn(Cc2ccc(Cl)cc2Cl)c2cc(OC(F)(F)F)ccc12 [JWS-2-104, 1-(2,4-dichlorobenzyl)-6-trifluoromethoxy-1H-indazole-3-carboxylic acid hydrazide]
Colormetric Ames test, with S9 (S. typhimurium TA100): Pass* | Colormetric Ames test, without S9 (S. typhimurium TA100): Pass*

COC(=O)/C=C/c1nn(Cc2ccc(Cl)cc2Cl)c2cc(OC(F)(F)F)ccc12 [JWS-2-110, 3-[1-(2,4-dichlorobenzyl)-6-trifluoromethoxy-1H-indazol-3-yl]acrylic acid methyl ester]
Colormetric Ames test, with S9 (S. typhimurium TA100): Pass* | Colormetric Ames test, without S9 (S. typhimurium TA100): Pass*

O=C(O)/C=C/c1nn(Cc2ccc(Cl)cc2Cl)c2cc(OC(F)(F)F)ccc12 [JWS-2-112, 3-[1-(2,4-dichlorobenzyl)-6-trifluoromethoxy-1H-indazol-3-yl]acrylic acid]
Colormetric Ames test, with S9 (S. typhimurium TA100): Pass* | Colormetric Ames test, without S9 (S. typhimurium TA100): Pass*

COC(=O)c1nn(Cc2ccc(Cl)cc2Cl)c2cc(OC)ccc12 [JWS-2-120, 1-(2,4-dichlorobenzyl)-6-methoxy-1H-indazole-3-carboxylic acid methyl ester]
Colormetric Ames test, with S9 (S. typhimurium TA100): Pass* | Colormetric Ames test, without S9 (S. typhimurium TA100): Pass*

COc1ccc2c(C(=O)O)nn(Cc3ccc(Cl)cc3Cl)c2c1 [JWS-2-122, 1-(2,4-dichlorobenzyl)-6-methoxy-1H-indazole-3-carboxylic acid]
Colormetric Ames test, with S9 (S. typhimurium TA100): Pass* | Colormetric Ames test, without S9 (S. typhimurium TA100): Pass*

COc1ccc2c(/C=C/C(=O)O)nn(Cc3ccc(Cl)cc3Cl)c2c1 [JWS-2-132, 3-[1-(2,4-dichlorobenzyl)-6-methoxy-1H-indazol-3-yl]acrylic acid]
Colormetric Ames test, with S9 (S. typhimurium TA100): Pass* | Colormetric Ames test, without S9 (S. typhimurium TA100): Pass*

CCOC(=O)c1nn(Cc2ccc(Cl)cc2Cl)c2ccccc12 [RC-MC-156, 1-[(2,4-dichlorobenzyl)-1H-indazole]-3-carboxylic acid ethyl ester]
Toxicology: liver, lung, pancreas, spleen, heart and kidney (histology) (rats; 25 mg/kg): The lung did have scattered small, hemorrhagic patches, mainly in the alveolar and terminal bronchiole regions; also recorded: The lung showed widespread hemorrhagic regions throughout the alveoli and terminal bronchioles with small hemosiderin deposits around a few smaller bronchioles | Toxicology: liver, lung, pancreas, spleen, heart and kidney (histology) (rats; 200 mg/kg): liver, lung, pancreas, spleen, heart and kidney all appeared within normal limits; also recorded: The lung had small, scattered areas of hemorrhage mainly around the alveoli and small bronchioles; also recorded: The liver had small (4-5 cells in diameter) patches of necrosis scattered throughout the parenchyma | Mortality (25 mg/kg) (Male Long Evans rats): 0/5 | Response 25 mg/kg (Male Long Evans rats): 2/5 | Mortality (200 mg/kg) (Male Long Evans rats): 0/5 | Response 200 mg/kg (Male Long Evans rats): 4/5 | Ames test (+)S9 0.1 mg/pl. [1]: Pass | Ames test (+)S9 1 mg/pl. [1]: Pass | Ames test (+)S9 10 mg/pl. [1]: Pass | Ames test (−)S9 0.1 mg/pl. [1]: Pass | Ames test (−)S9 1 mg/pl. [1]: Pass | Ames test (−)S9 10 mg/pl. [1]: Pass

CCCOC(=O)c1nn(Cc2ccc(Cl)cc2Cl)c2ccccc12 [RC-MC-158, 1-[(2,4-dichlorobenzyl)-1H-indazole]-3-carboxylic acid propyl ester]
Toxicology: liver, lung, pancreas, spleen, heart and kidney (histology) (rats; 25 mg/kg): liver, lung, pancreas, spleen, heart and kidney all appeared within normal limits; also recorded: The lung did have small scattered hemorrhagic areas, mainly around the alveoli and terminal bronchioles | Toxicology: liver, lung, pancreas, spleen, heart and kidney (histology) (rats; 200 mg/kg): The lung had multiple, large hemorrhagic areas, mainly in the alveolar regions with some hemosiderin deposits; also recorded: The lung contained multiple large hemorrhagic areas, mainly in the alveoli; also recorded: The liver contained small, scattered necrotic areas, generally around the portal veins | Mortality (25 mg/kg) (Male Long Evans rats): 0/5 | Response 25 mg/kg (Male Long Evans rats): 2/5 | Mortality (200 mg/kg) (Male Long Evans rats): 0/5 | Response 200 mg/kg (Male Long Evans rats): 5/5 | Ames test (+)S9 0.1 mg/pl. [1]: Mar- | Ames test (+)S9 1 mg/pl. [1]: Pass | Ames test (+)S9 10 mg/pl. [1]: Pass | Ames test (−)S9 0.1 mg/pl. [1]: Pass | Ames test (−)S9 1 mg/pl. [1]: Pass | Ames test (−)S9 10 mg/pl. [1]: Pass
